# According to patent US11213030B2, “4-(3,4-dihydronaphth-1-yl or 2H-chromen-4-yl)-5-hydroxy-2H-pyradizin-3-ones as herbicides” (FMC Corporation, priority 2017, dated 2022):
# Legend:
# Type in all cases: in vivo
# [1] = system: ryegrass, It. (Italian ryegrass, Lolium multiflorum); assay: Test A postemergence, Italian ryegrass; conditions: 0 to 100 scale
# Description: (§1) Seeds of plant species selected from barnyardgrass (Echinochloa crus-galli), kochia (Kochia scoparia), ragweed (common ragweed, Ambrosia elatior), ryegrass, It. (Italian ryegrass, Lolium multiflorum), foxtail, green (green foxtail, Setaria viridis), and pigweed (Amaranthus retroflexus) were planted into a blend of loam soil and sand and treated preemergence with a directed soil spray using test chemicals formulated in a non-phytotoxic solvent mixture which included a surfactant. At the same time, plants selected from these weed species and also wheat (Triticum aestivum), corn (Zea mays), blackgrass (Alopecurus myosuroides), and galium (catchweed bedstraw, Galium aparine) were planted in pots containing the same blend of loam soil and sand and treated with postemergence applications of test chemicals formulated in the same manner. Plants ranged in height from 2 to 10 cm and were in the one- to two-leaf stage for the postemergence treatment. Treated plants and untreated controls were maintained in a greenhouse for approximately 10 d, after which time all treated plants were compared to untreated controls and visually evaluated for injury. Plant response ratings, summarized in Table A, are based on a 0 to 100 scale where 0 is no effect and 100 is complete control. A dash (-) response means no test result.
# [2] = system: blackgrass (Alopecurus myosuroides); assay: Test A postemergence, blackgrass; conditions: 0 to 100 scale
# Description: as §1
# kochia (Kochia scoparia) [3] = assay: Test A preemergence, kochia; conditions: 125 g ai/ha, 0 to 100 scale
# Description: as §1
# [4] = system: pigweed (Amaranthus retroflexus); assay: Test A preemergence, pigweed; conditions: 0 to 100 scale
# Description: as §1
# [5] = system: foxtail, green (green foxtail, Setaria viridis); assay: Test A preemergence, green foxtail; conditions: 31 g ai/ha, 0 to 100 scale
# Description: as §1
# [6] = system: barnyardgrass (Echinochloa crus-galli); assay: Test A postemergence, barnyardgrass; conditions: 0 to 100 scale
# Description: as §1
# corn (Zea mays) = assay: Test A postemergence, corn; conditions: 0 to 100 scale
# Description: as §1
# [7] = system: galium (catchweed bedstraw, Galium aparine); assay: Test A postemergence, galium; conditions: 0 to 100 scale
# Description: as §1
# kochia (Kochia scoparia) [8] = assay: Test A postemergence, kochia; conditions: 0 to 100 scale
# Description: as §1
# Foxtail, Giant [9] = assay: Test A preemergence, giant foxtail; conditions: 125 g ai/ha, 0 to 100 scale
# [10] = system: barnyardgrass (Echinochloa crus-galli); assay: Test A preemergence, barnyardgrass; conditions: 0 to 100 scale
# Description: as §1
# rice (Oryza sativa) = assay: Test B flooded paddy test, rice; conditions: Flood, 250 g ai/ha applied to paddy water, 2-leaf stage, 13 to 15 d; scale of 0 to 100 where 0 is no effect and 100 is complete control
# Experimental: (§2) Plant species in the flooded paddy test selected from rice (Oryza sativa), sedge, umbrella (small-flower umbrella sedge, Cyperus difformis), ducksalad (Heteranthera limosa), and barnyardgrass (Echinochloa crus-galli) were grown to the 2-leaf stage for testing. At the time of treatment, test pots were flooded to 3 cm above the soil surface, treated by application of test compounds directly to the paddy water, and then maintained at that water depth for the duration of the test. Treated plants and controls were maintained in a greenhouse for 13 to 15 d, after which time all species were compared to controls and visually evaluated. Plant response ratings, summarized in Table B, are based on a scale of 0 to 100 where 0 is no effect and 100 is complete control. A dash (-) response means no test result.
# [11] = system: ryegrass, It. (Italian ryegrass, Lolium multiflorum); assay: Test A preemergence, Italian ryegrass; conditions: 0 to 100 scale
# Description: as §1
# [12] = system: ducksalad (Heteranthera limosa); assay: Test B flooded paddy test, ducksalad; conditions: Flood, 250 g ai/ha applied to paddy water, 2-leaf stage, 13 to 15 d; scale of 0 to 100 where 0 is no effect and 100 is complete control
# Experimental: as §2
# [13] = system: wheat (Triticum aestivum); assay: Test A postemergence, wheat; conditions: 0 to 100 scale
# Description: as §1
# [14] = system: barnyardgrass (Echinochloa crus-galli); assay: Test B flooded paddy test, barnyardgrass; conditions: Flood, 250 g ai/ha applied to paddy water, 2-leaf stage, 13 to 15 d; scale of 0 to 100 where 0 is no effect and 100 is complete control
# Experimental: as §2
# Foxtail, Giant [15] = assay: Test A postemergence, giant foxtail; conditions: 0 to 100 scale
# [16] = system: ragweed (common ragweed, Ambrosia elatior); assay: Test A preemergence, ragweed; conditions: 0 to 100 scale
# Description: as §1
# [17] = system: pigweed (Amaranthus retroflexus); assay: Test A postemergence, pigweed; conditions: 0 to 100 scale
# Description: as §1
# [18] = system: ragweed (common ragweed, Ambrosia elatior); assay: Test A postemergence, ragweed; conditions: 0 to 100 scale
# Description: as §1
# [19] = system: sedge, umbrella (small-flower umbrella sedge, Cyperus difformis); assay: Test B flooded paddy test, umbrella sedge; conditions: Flood, 250 g ai/ha applied to paddy water, 2-leaf stage, 13 to 15 d; scale of 0 to 100 where 0 is no effect and 100 is complete control
# Experimental: as §2
smiles,measurement,setting,value
CC1=C(c2c(O)c(Cl)nn(C)c2=O)c2cc(C)ccc2CC1 [Compound 8],"Plant response rating, Ryegrass, It.",[1]; 31 g ai/ha,40
same,"Plant response rating, Ryegrass, It.",[1]; 125 g ai/ha,80
same,"Plant response rating, Blackgrass",[2]; 31 g ai/ha,20
same,"Plant response rating, Blackgrass",[2]; 125 g ai/ha,30
same,"Plant response rating, Kochia",kochia (Kochia scoparia) [3],10
same,"Plant response rating, Pigweed",[4]; 31 g ai/ha,10
same,"Plant response rating, Pigweed",[4]; 125 g ai/ha,100
same,"Plant response rating, Foxtail, Green",[5],0
same,"Plant response rating, Barnyardgrass",[6]; 31 g ai/ha,50
same,"Plant response rating, Barnyardgrass",[6]; 125 g ai/ha,80
same,"Plant response rating, Corn",corn (Zea mays); 31 g ai/ha,0
same,"Plant response rating, Corn",corn (Zea mays); 125 g ai/ha,20
same,"Plant response rating, Galium",[7]; 31 g ai/ha,90
same,"Plant response rating, Galium",[7]; 125 g ai/ha,90
same,"Plant response rating, Kochia",kochia (Kochia scoparia) [8]; 31 g ai/ha,40
same,"Plant response rating, Kochia",kochia (Kochia scoparia) [8]; 125 g ai/ha,50
same,"Plant response rating, Foxtail, Giant","Foxtail, Giant [9]",70
same,"Plant response rating, Barnyardgrass",[10]; 31 g ai/ha,0
same,"Plant response rating, Barnyardgrass",[10]; 125 g ai/ha,60
same,"Plant response rating, Rice",rice (Oryza sativa),0
same,"Plant response rating, Ryegrass, It.",[11]; 31 g ai/ha,0
same,"Plant response rating, Ryegrass, It.",[11]; 125 g ai/ha,10
same,"Plant response rating, Ducksalad",[12],90
same,"Plant response rating, Wheat",[13]; 31 g ai/ha,0
same,"Plant response rating, Wheat",[13]; 125 g ai/ha,0
same,"Plant response rating, Barnyardgrass",[14],60
same,"Plant response rating, Foxtail, Giant","Foxtail, Giant [15]; 31 g ai/ha",60
same,"Plant response rating, Foxtail, Giant","Foxtail, Giant [15]; 125 g ai/ha",80
same,"Plant response rating, Ragweed",[16]; 31 g ai/ha,0
same,"Plant response rating, Ragweed",[16]; 125 g ai/ha,30
same,"Plant response rating, Pigweed",[17]; 31 g ai/ha,90
same,"Plant response rating, Pigweed",[17]; 125 g ai/ha,100
same,"Plant response rating, Ragweed",[18]; 31 g ai/ha,80
same,"Plant response rating, Ragweed",[18]; 125 g ai/ha,100
same,"Plant response rating, Sedge, Umbrella",[19],95
